pIC50: −log10 of the molar value. Read-outs that look alike come from different tables or passages of the source.
Tests used:
[1] = biological target: T1, Crm1 (Homo sapiens, UniProt O14980); assay: Inhibition of nuclear export (RevGFP assay) / MTT cytotoxicity, Table 1
Protocol: (§1) The evaluation of the affinity of compounds for the Crm1 protein was determined in the RevGFP assay.
(§2) In this assay, U2OS-RevGFP cells are seeded onto clear-bottom, black, 384-well plates the day before the experiment. Compounds are serially diluted 1:2 starting from 40 μM in a separate 384-well plate in DMEM, and then transferred onto cells. Cells are incubated with compound for ˜1 hr before fixation with 3.7% formaldehyde and nuclei staining with Hoechst 33258. The amount of GFP in cell nuclei will be measured and compound IC50s determined (Kau et al, 2003).
(§3) The MTT cell proliferation assay was used to study the cytotoxic properties of the compounds. The assay was performed according to the method described by Roche Molecular Biochemicals with minor modifications. The assay is based on the cleavage of the tetrazolium salt, MTT, in the presence of an electron-coupling reagent. The water-insoluble formazan salt produced must be solubilized in an additional step. Cells, grown in a 96-well tissue culture plate, are incubated with the MTT solution for approximately 4 hours. After this incubation period, a water-insoluble formazan dye is formed. After solubilization, the formazan dye is quantitated using a scanning multi-well spectrophotometer (ELISA reader). […] The cells were seeded at 1.5×10^4 cells in each well of 96-well plate in 200 μL of fresh culture medium and were allowed to attach for overnight. The stock solutions of the compounds were diluted in cell culture medium to obtain eight concentrations of each drug, ranging from 1 nM to 20 μM. After 72 h of treatment the medium was aspirated and the cells were washed once with sterile 1×PBS. Each plate contained the samples, negative control and blank. The DMSO at less than 1% v/v was used as a negative control. […] The following formula was used to calculate the percent of inhibition: Inhibition (%)=(1−(ODo/OD))×100.

[2] = system: HCT-116 tumor cells; assay: HCT-116 colorectal carcinoma xenograft model; assay type: in vivo, mice
Protocol: FIG. 1 is a graph depicting the results of an HCT-116 colorectal carcinoma xenograft model. HCT-116 cells were inoculated into female athymic Balb c. nu^+/nu^+ mice. Once tumors reached an average volume of 200 mm^3, the animals were dosed with vehicle, 25 mg/kg 5-fluorouracil intraperitoneally and 75 mg/kg I-29 subcutaneously.
FIG. 2 is a graph depicting the results of an HCT-116 colorectal carcinoma xenograft model. HCT-116 cells were inoculated into female athymic Balb c. nu^+/nu^+ mice. Once tumors reached an average volume of 100 mm^3 the animals were dosed with vehicle, 50 mg/kg 5-fluorouracil intraperitoneally and 50 and 100 mg/kg I-34 orally. […] Mice were euthanized on Day 26 due to 20% weight loss. At Day 37, I-34 administered QDX5/week at 50 mg/kg inhibited tumor growth by 85%.
Female balb c nude mice (nu/nu) aged 6 to 8 weeks were obtained from Charles River Laboratories and were randomly and prospectively divided into six groups of ten mice. Mice were inoculated s.c. in flanks with 1×10^6 HCT-116 tumor cells. When cells reached 100-200 mm^3, animals were randomized into treatment groups of 5-10 mice each, excluding mice with the largest and smallest tumors. Mice were treated with vehicle, standard of care drugs (5-FU) or compounds of the invention at the indicated doses and regimen. Animals' weights and condition were recorded daily, and tumors were measured daily. On Day 37 (2 hours after the final dose), all mice were sacrificed, plasma and tumor tissue were collected for PK/PD analysis. Tumors were divided in 4 sections (3, flash-frozen in separate vials and 1 fixed in formalin for paraffin block preparation).
HCT-116 Colorectal tumor cells (ATCC# CCL-247) were grown in the DMEM tissue culture media with 10% fetal bovine serum and 1% penicillin/streptomycin. Cells were routinely trypsinized and passaged 1:4. On the day of implantation, cells were washed in PBS, trypsinized and resuspended in complete media. Cells were washed 3× in serum free medium. Cells were resuspended to a density of 1×10^7 cells/ml prior to being implanted s.c. into mice in a volume of 0.1 mL using a 23G needle.
Tumors were monitored daily. Tumors appearing exceeding 1500 mm^3 were measured, and animals with tumors greater than 1500 mm^3 and/or tumors that became necrotic and/or hindered movement were euthanized. Tumors were measured twice weekly by measuring each tumor in 2 dimensions, along the largest dimension (length, L) and perpendicular to this dimension (width, W). Tumor weights were calculated using the standard formula: (L×W^2)/2. The mean tumor weight and standard error of the mean were calculated for each group at each time point.
Statistical differences between treatment groups were determined using appropriate statistical techniques. A one-way ANOVA or ANOVA on ranks was used to evaluate the area-under the curve for weight gain and tumor volume.

[3] = system: MM1.S cells; assay: MM1.S multiple myeloma xenograft model; assay type: in vivo, mice
Protocol: FIG. 3 is a graph depicting the results of a MM1.S multiple myeloma model. MM1.S cells were inoculated into female athymic Balb c. nu^+/nu^+mice. Once tumors reached an average volume of 780 mm^3 the animals were dosed with vehicle and 75 mg/kg I-1 subcutaneously. Following 3 doses I-1 caused 50% reduction in tumor growth in a statistically significant manner.
FIG. 4 is a graph depicting the results of a MM1.S multiple myeloma model. MM1.S cells were inoculated into female athymic nu^+/nu^+ mice. Once tumors reached an average volume of 1400 mm^3 the animals were dosed with vehicle or 50 mg/kg I-29 subcutaneously every day. On the fourth day of dosing, vehicle group animals (n=10) reached an average volume of 2300 mm^3 and had to be euthanized due to tumor burden and poor health.
105 female athymic nude mice (8-9 weeks old, Harlan, USA) were grouped into […]. Animals were randomized such that the group average tumor volume was between 100-200 mm^3. Group average body weights were matched as closely as possible once average tumor volumes were randomized. The live-phase portion of this study will be 28 days in duration from the start of until the average group tumor volume reaches 2,000 mm^3, whichever comes first. Mice are to be euthanized with samples collected as and when they individually reach a tumor volume of approximately 2,000 mm^3.
MM1s Cell Culture. […]
Tumor volumes were monitored three times per week throughout the study (typically Monday, Wednesday and Friday) and calculated using the formula: Tumor volume=½(a^2 b); where a=width (smallest dimension) and b=length. […]
Animals were monitored as a group and their tumor volumes were measured three times per week at the same time of day. […]

[4] = biological target: T1, Crm1
Protocol: as §1, §2, §3

[5] = 50 mg/kg subcutaneously every day, following 8 doses, FIG. 4

T1 sequence (O14980 whole entry): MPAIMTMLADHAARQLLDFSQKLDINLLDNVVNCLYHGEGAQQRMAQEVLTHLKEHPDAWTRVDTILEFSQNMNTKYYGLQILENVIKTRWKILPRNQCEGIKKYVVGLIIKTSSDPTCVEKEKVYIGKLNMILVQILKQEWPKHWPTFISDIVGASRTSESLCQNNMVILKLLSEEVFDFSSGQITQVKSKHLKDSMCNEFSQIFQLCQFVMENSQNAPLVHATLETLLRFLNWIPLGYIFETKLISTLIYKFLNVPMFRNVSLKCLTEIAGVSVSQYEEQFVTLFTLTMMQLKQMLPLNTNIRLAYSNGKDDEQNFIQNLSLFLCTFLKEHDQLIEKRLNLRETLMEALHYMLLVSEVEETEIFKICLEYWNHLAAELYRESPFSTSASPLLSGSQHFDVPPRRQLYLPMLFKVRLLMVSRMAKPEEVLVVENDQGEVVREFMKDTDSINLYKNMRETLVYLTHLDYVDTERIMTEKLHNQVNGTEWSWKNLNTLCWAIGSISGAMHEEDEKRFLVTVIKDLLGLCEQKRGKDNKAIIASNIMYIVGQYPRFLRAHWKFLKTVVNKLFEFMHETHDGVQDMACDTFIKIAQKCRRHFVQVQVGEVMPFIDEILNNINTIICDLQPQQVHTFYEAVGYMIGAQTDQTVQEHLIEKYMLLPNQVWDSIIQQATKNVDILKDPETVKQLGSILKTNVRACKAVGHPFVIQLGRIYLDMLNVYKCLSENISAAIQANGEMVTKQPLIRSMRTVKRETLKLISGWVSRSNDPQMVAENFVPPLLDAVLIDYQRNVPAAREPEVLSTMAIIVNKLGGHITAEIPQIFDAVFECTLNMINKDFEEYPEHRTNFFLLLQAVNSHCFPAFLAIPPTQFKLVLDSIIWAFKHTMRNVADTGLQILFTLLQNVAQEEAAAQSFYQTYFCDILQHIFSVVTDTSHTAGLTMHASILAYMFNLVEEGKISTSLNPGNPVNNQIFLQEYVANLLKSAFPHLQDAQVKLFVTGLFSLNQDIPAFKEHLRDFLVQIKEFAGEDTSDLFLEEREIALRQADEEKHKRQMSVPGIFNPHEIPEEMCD

CC(C)Oc1cc(-c2ncn(/C=C\c3nnco3)n2)cc(C(F)(F)F)n1 [Compound I-30, (Z)-2-(2-(3-(2-isopropoxy-6-(trifluoromethyl)pyridin-4-yl)-1H-1,2,4-triazol-1-yl)vinyl)-1,3,4-oxadiazole]
pIC50 [1]: > 6.00

CC(C)Oc1cc(Cl)cc(-c2ncn(/C=C\c3nnco3)n2)c1 [Compound I-28, (Z)-2-(2-(3-(3-chloro-5-isopropoxyphenyl)-1H-1,2,4-triazol-1-yl)vinyl)-1,3,4-oxadiazole]
pIC50 [1]: > 6.00

CC(C)Oc1cc(-c2ncn(/C=C\c3nnco3)n2)cc(C(F)(F)F)c1 [Compound I-29, (Z)-2-(2-(3-(3-isopropoxy-5-(trifluoromethyl)phenyl)-1H-1,2,4-triazol-1-yl)vinyl)-1,3,4-oxadiazole]
reduction in tumor growth ([2]; 75 mg/kg subcutaneously, 5 times/week, following 3 weeks of dosing, FIG. 1): 50% | animals still alive (survival) [3, 5]: 10 out of 12 | reduction in tumor growth [3, 5]: 50% | pIC50 [1]: > 6.00

O=c1[nH]cc(F)c(=O)[nH]1 [Compound 5-FU, 5-fluorouracil, reference compound]
efficacy on tumor growth ([2]; 25 mg/kg intraperitoneally, 3 weeks of dosing, FIG. 1): did not display efficacy | inhibition of tumor growth compared to vehicle group ([2]; 50 mg/kg intraperitoneally, Day 37, FIG. 2): no inhibition of tumor growth was observed | condition of animals ([2]; 50 mg/kg intraperitoneally, by Day 37, FIG. 2): euthanized due to poor condition | inhibition of tumor growth ([2]; 50 mg/kg intraperitoneally, first 3 weeks, FIG. 2): inhibited tumor growth during the first 3 weeks in a statistically significant manner

CC(C)Oc1cc(-c2ncn(/C=C\c3ccccn3)n2)cc(C(F)(F)F)c1 [Compound I-37, (Z)-2-(2-(3-(3-isopropoxy-5-(trifluoromethyl)phenyl)-1H-1,2,4-triazol-1-yl)vinyl)pyridine]
pIC50 [1]: > 6.00

Clc1cccc(-c2ncn(/C=C\c3nnco3)n2)c1 [Compound I-26, (Z)-2-(2-(3-(3-chlorophenyl)-1H-1,2,4-triazol-1-yl)vinyl)-1,3,4-oxadiazole]
pIC50 [1]: > 6.00

COc1cc(-c2ncn(/C=C\c3nnco3)n2)cc(C(F)(F)F)c1 [Compound I-1, (Z)-2-(2-(3-(3-methoxy-5-(trifluoromethyl)phenyl)-1H-1,2,4-triazol-1-yl)vinyl)-1,3,4-oxadiazole]
reduction in tumor growth ([3]; 75 mg/kg subcutaneously, following 3 doses, FIG. 3): 50% | pIC50 [1]: > 6.00

COc1cc(-c2ncn(/C=C\c3nnc(C)o3)n2)cc(C(F)(F)F)c1 [Compound I-2, (Z)-2-(2-(3-(3-methoxy-5-(trifluoromethyl)phenyl)-1H-1,2,4-triazol-1-yl)vinyl)-5-methyl-1,3,4-oxadiazole]
pIC50 [1]: > 6.00

Clc1cccc(-c2ncn(/C=C/c3nnco3)n2)c1 [Compound I-27, (E)-2-(2-(3-(3-chlorophenyl)-1H-1,2,4-triazol-1-yl)vinyl)-1,3,4-oxadiazole]
pIC50 [1]: 5.00 to 6.00

FC(F)(F)c1cc(-c2ncn(/C=C\c3nnco3)n2)cc(C(F)(F)F)c1 [Compound I-34, (Z)-2-(2-(3-(3,5-bis(trifluoromethyl)phenyl)-1H-1,2,4-triazol-1-yl)vinyl)-1,3,4-oxadiazole]
inhibition of tumor growth ([2]; 50 mg/kg orally QDX5/week, Day 37, FIG. 2): 85% | weight loss ([2]; 100 mg/kg orally QDX5/week, Day 26, mice euthanized, FIG. 2): 20% | reduction of tumor growth ([2]; 100 mg/kg orally QDX5/week, Day 26, FIG. 2): complete reduction of tumor growth | pIC50 [1]: > 6.00

CC(C)Oc1cc(-c2ncn(/C=C\c3ccccc3)n2)cc(C(F)(F)F)c1 [Compound I-39, (Z)-3-(3-isopropoxy-5-(trifluoromethyl)phenyl)-1-styryl-1H-1,2,4-triazole]
pIC50 [1]: < 5.00

CS(=O)(=O)c1cc(-c2ncn(/C=C\c3nnco3)n2)cc(C(F)(F)F)c1 [Compound I-33, (Z)-2-(2-(3-(3-(methylsulfonyl)-5-(trifluoromethyl)phenyl)-1H-1,2,4-triazol-1-yl)vinyl)-1,3,4-oxadiazole]
pIC50 [1]: > 6.00

COc1cc(-c2ncn(/C=C\c3nnco3)n2)cc(Cl)n1 [Compound I-10, (Z)-2-(2-(3-(2-chloro-6-methoxypyridin-4-yl)-1H-1,2,4-triazol-1-yl)vinyl)-1,3,4-oxadiazole]
pIC50 [1]: > 6.00

COc1cc(-c2ncn(/C=C\c3ccccn3)n2)cc(C(F)(F)F)c1 [Compound I-21, (Z)-2-(2-(3-(3-methoxy-5-(trifluoromethyl)phenyl)-1H-1,2,4-triazol-1-yl)vinyl)pyridine]
pIC50 [1]: < 5.00

COc1cc(-c2ncn(/C=C\c3ccccc3)n2)cc(C(F)(F)F)c1 [Compound I-38, (Z)-3-(3-methoxy-5-(trifluoromethyl)phenyl)-1-styryl-1H-1,2,4-triazole]
pIC50 [1]: < 5.00

N#Cc1cc(-c2ncn(/C=C\c3nnco3)n2)cc(C(F)(F)F)c1 [Compound I-35, (Z)-3-(1-(2-(1,3,4-oxadiazol-2-yl)vinyl)-1H-1,2,4-triazol-3-yl)-5-(trifluoromethyl)benzonitrile]
pIC50 [1]: > 6.00

Oc1cc(-c2ncn(/C=C\c3nnco3)n2)cc(C(F)(F)F)c1 [Compound I-36, (Z)-3-(1-(2-(1,3,4-oxadiazol-2-yl)vinyl)-1H-1,2,4-triazol-3-yl)-5-(trifluoromethyl)phenol]
pIC50 [1]: > 6.00

CC(C)Oc1cc(-c2ncn(/C=C\c3nnco3)n2)cc(Cl)n1 [Compound I-31, (Z)-2-(2-(3-(2-chloro-6-isopropoxypyridin-4-yl)-1H-1,2,4-triazol-1-yl)vinyl)-1,3,4-oxadiazole]
pIC50 [1]: > 6.00

(Z)-2-(2-(3-(3-chloro-5-(trifluoromethoxy)phenyl)-1H-1,2,4-triazol-1-yl)vinyl)-1,3,4-oxadiazole [Compound I-32]
pIC50 [4]: > 6.00

Source: US9303000B2, “Olefin containing nuclear transport modulators and uses thereof” (KARYOPHARM THERAPEUTICS INC., priority 2011, dated 2016)
